pEC50, pIC50: −log10 of the molar value. Like-named read-outs stand apart in the source and are kept apart here.
Assays:
[1] = In Vitro Microsome Stability Assay (mouse); format: in vitro ADME
Outline: (§1)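 Test article, added from a 0.25 mM DMSO stock, was incubated with liver microsomes (20 mg/mL stock) in 0.1 M potassium phosphate at 37° C, with the reaction started by NADPH. Samples were quenched with acetonitrile containing internal standard at 0 and 30 min and analysed by LC-MS/MS. Values are % remaining at 30 min versus 0 min, using IS-normalised AUC ratios.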

[2] = tested on: multiple myeloma cell line NCl-H929; test: H929 Cell Viability Assay; format: cell-based, human; details: Homo sapiens, NCI-H929, 48 h
Outline: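 Viability was determined by CellTiter-Glo luminescence after a 48 h, 37 °C exposure of NCI-H929 cells to serial compound dilutions in medium containing 10% FBS. Where stereochemistry is not shown, values refer to a mix of stereoisomers.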

[3] = tested on: full length TNFα (amino acids 1-233) fused to Gaussia Luciferase; test: Dox Induced TNFα-FL-Gluc Assay; format: cell-based; details: 24 hr, read-out: 24 hr Dox Inducible TNFaFLGluc 293FRT/TO: Mean IC50
Outline: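 Compounds diluted in DMSO/medium with doxycycline were incubated at 37° C, 5% CO2 with 293 T-REx cells stably carrying a Tet-regulated TNFα(1-233)-Gaussia luciferase construct. Data for structures drawn without stereochemistry refer to stereoisomer mixtures.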

[4] = tested on: PD1 signal sequence plus 10 amino acids fused to Gaussia Luciferase (PD1-ss+10aa/Gaussia Luciferase); test: Dox Induced PD1-ss-Gluc Assay; format: cell-based; details: 24 hr, read-out: 24 hr Dox Inducible PD1ssGluc 293FRT/TO: Mean IC50
Outline: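 Compound dilutions in DMSO/media containing doxycycline were applied to a stable, inducible 293 T-REx line carrying the luciferase fusion, then incubated at 37 °C, 5% CO2. Where stereochemistry is not drawn, values relate to isomer mixtures.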

[5] = In Vitro Microsome Stability Assay (rat); format: in vitro ADME
Outline: as §1

[6] = tested on: multiple myeloma cell line U266B1; test: U266 Cell Viability Assay; format: cell-based, human; details: Homo sapiens, U-266, 48 hr
Outline: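 Viability was measured by CellTiter-Glo luminescence after 48 h compound exposure at 37° C, 5% CO2. The cells were U266B1 multiple myeloma cells grown in RPMI 1640 plus 10% FBS. Where stereochemistry is not shown, values apply to the stereoisomer mixture.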

[7] = tested on: full length IL-2 (amino acids 1-153) fused to Gaussia Luciferase; test: Dox Induced IL2-FL-Gluc Assay; format: cell-based; details: 24 hr, read-out: 24 hr Dox Inducible IL2FLGluc 293FRT/TO: Mean IC50
From the text: FIp-In 293 T-REx™ cells were transfected with pcDNA™5/FRT/TO plasmid inserted with cDNA encoding Gaussia Luciferase fused to the 3′ end of cDNA encoding full length IL-2 (amino acids 1-153). Transfected cells were selected for resistance to the selectable markers Hygromycin and Blasticidin to create a stable cell line that contained the IL-2-FL/Gaussia Luciferase cDNA insert whose expression was regulated under the T-REx™ system. The day before assay, cells were trypsinized and plated in 384-well tissue culture plates. The next day, compound dilutions in DMSO/media containing doxycycline were added to the wells and incubated at 37° C., 5% CO2.
For chemical structures that include one or more stereoisomers, but are illustrated without indicating stereochemistry, the assay data refers to a mixture of stereoisomers.

[8] = In Vitro Microsome Stability Assay (monkey); format: in vitro ADME
Outline: as §1

[9] = In Vitro Microsome Stability Assay (human); format: in vitro ADME
Outline: as §1

[10] = mouse liver microsomes, 30 min w/ NADPH
[11] = rat liver microsomes, 30 min w/ NADPH
[12] = monkey liver microsomes, 30 min w/ NADPH
[13] = human liver microsomes, 30 min w/ NADPH
[14] = H929, read-out: 48 hr H929 Viability Celltiter-Glo: Mean EC50
[15] = U266, read-out: 48 hr U266 Viability Celltiter-Glo: Mean EC50

Row | Liver Microsome Stability-% Left after 30 min w/ NADPH (%) Mouse [1, 10] [%] | pEC50 ([2]; H929, Celltiter-Glo) | pIC50 ([3]; Dox inducible, 293FRT/TO cells) | pIC50 ([4]; Dox inducible, 293FRT/TO cells) | Liver Microsome Stability-% Left after 30 min w/ NADPH (%) Rat [5, 11] [%] | pEC50 ([6]; U266, Celltiter-Glo) | pIC50 ([7]; Dox inducible, 293FRT/TO cells) | Liver Microsome Stability-% Left after 30 min w/ NADPH (%) Monkey [8, 12] [%] | Liver Microsome Stability-% Left after 30 min w/ NADPH (%) Human [9, 13] [%] | Liver Microsome Stability-% Left after 30 min w/ NADPH (%) Mouse ([1]; mouse, 30 min, NADPH) [%] | pEC50 [2, 14] | pIC50 ([3]; 293FRT/TO) | pIC50 ([4]; 293FRT/TO) | Liver Microsome Stability-% Left after 30 min w/ NADPH (%) Rat ([5]; rat, 30 min, NADPH) [%] | pEC50 [6, 15] | pIC50 ([7]; 293FRT/TO) | Liver Microsome Stability-% Left after 30 min w/ NADPH (%) Monkey ([8]; monkey, 30 min, NADPH) [%] | Liver Microsome Stability-% Left after 30 min w/ NADPH (%) Human ([9]; human, 30 min, NADPH) [%] | SMILES
1 | 26.5 | < 4.60 | < 4.60 | 6.24 | 27.3 | < 4.60 | 6.14 | 16.7 | 20.2 | – | – | – | – | – | – | – | – | – | Cc1cc(F)ccc1N1CC2(C1)CN(S(=O)(=O)N1CCCN(CC3CCCCC3)CCCN(S(=O)(=O)c3ccc(N(C)C)cc3)C[C@H](C)C1)C2 [A161, 4-{[(3S)-9-(cyclohexylmethyl)-5-{[6-(4-fluoro-2-methylphenyl)-2,6-diazaspiro[3.3]heptan-2-yl]sulfonyl}-3-methyl-1,5,9-triazacyclododecan-1-yl]sulfonyl}-N,N-dimethylaniline]
2 | 6.73 | 5.84 | 6.41 | 8.03 | 6.28 | < 4.60 | 7.39 | 2.27 | 4.26 | – | – | – | – | – | – | – | – | – | COc1c(F)cccc1N1CCN(S(=O)(=O)N2CCCN(CC3CCCCC3)CCCN(S(=O)(=O)c3ccc(N(C)C)cc3)C[C@H](C)C2)CC1 [A175, 4-{[(3S)-9-(cyclohexylmethyl)-5-{[4-(3-fluoro-2-methoxyphenyl)piperazin-1-yl]sulfonyl}-3-methyl-1,5,9-triazacyclododecan-1-yl]sulfonyl}-N,N-dimethylaniline]
3 | 3.65 | 5.75 | 6.10 | 7.25 | 10.8 | < 4.60 | 6.87 | 1.37 | 7.2 | – | – | – | – | – | – | – | – | – | CC1c2ccccc2CCN1S(=O)(=O)N1CCCN(CC2CCCCC2)CCCN(S(=O)(=O)c2ccc(N(C)C)cc2)C[C@H](C)C1 (stereo partly drawn) [A170, 4-{[(3S)-9-(cyclohexylmethyl)-3-methyl-5-[(1-methyl-1,2,3,4-tetrahydroisoquinolin-2-yl]sulfonyl]-1,5,9-triazacyclododecan-1-yl]sulfonyl}-N,N-dimethylaniline]
4 | 26.4 | 6.26 | 6.56 | 7.78 | 31.3 | < 4.60 | 7.52 | 18.7 | 14.0 | – | – | – | – | – | – | – | – | – | Cc1cccc2c1CCN(S(=O)(=O)N1CCCN(CC3CCCCC3)CCCN(S(=O)(=O)c3ccc(N(C)C)cc3)C[C@H](C)C1)C2 [A166, 4-{[(3S)-9-(cyclohexylmethyl)-3-methyl-5-[(5-methyl-1,2,3,4-tetrahydroisoquinolin-2-yl)sulfonyl]-1,5,9-triazacyclododecan-1-yl]sulfonyl}-N,N-dimethylaniline]
5 | 58.4 | < 4.60 | 4.86 | 6.35 | 72.3 | < 4.60 | 6.08 | 44.7 | 55.2 | – | – | – | – | – | – | – | – | – | C[C@@H]1CN(CC2CCCCC2)C[C@H](C)CN(S(=O)(=O)c2ccc(N(C)C)cc2)C[C@H](C)CN(S(=O)(=O)N2CCc3cc(Cl)ccc3C2)C1 [B16, 4-{[(3S,7R,11S)-5-[(6-chloro-1,2,3,4-tetrahydroisoquinolin-2-yl]sulfonyl]-9-(cyclohexylmethyl)-3,7,11-trimethyl-1,5,9-triazacyclododecan-1-yl]sulfonyl}-N,N-dimethylaniline]

The remaining lines, values behind:

Row | SMILES | Liver Microsome Stability-% Left after 30 min w/ NADPH (%) Mouse [1, 10] [%] | pEC50 ([2]; H929, Celltiter-Glo) | pIC50 ([3]; Dox inducible, 293FRT/TO cells) | pIC50 ([4]; Dox inducible, 293FRT/TO cells) | Liver Microsome Stability-% Left after 30 min w/ NADPH (%) Rat [5, 11] [%] | pEC50 ([6]; U266, Celltiter-Glo) | pIC50 ([7]; Dox inducible, 293FRT/TO cells) | Liver Microsome Stability-% Left after 30 min w/ NADPH (%) Monkey [8, 12] [%] | Liver Microsome Stability-% Left after 30 min w/ NADPH (%) Human [9, 13] [%] | Liver Microsome Stability-% Left after 30 min w/ NADPH (%) Mouse ([1]; mouse, 30 min, NADPH) [%] | pEC50 [2, 14] | pIC50 ([3]; 293FRT/TO) | pIC50 ([4]; 293FRT/TO) | Liver Microsome Stability-% Left after 30 min w/ NADPH (%) Rat ([5]; rat, 30 min, NADPH) [%] | pEC50 [6, 15] | pIC50 ([7]; 293FRT/TO) | Liver Microsome Stability-% Left after 30 min w/ NADPH (%) Monkey ([8]; monkey, 30 min, NADPH) [%] | Liver Microsome Stability-% Left after 30 min w/ NADPH (%) Human ([9]; human, 30 min, NADPH) [%]
6 | C[C@H]1CN(S(=O)(=O)c2ccc(N(C)C)cc2)CCCN(CC2=CCCCC2)CCCN(S(=O)(=O)N2CCc3cc(Cl)ccc3C2)C1 [A135, 4-{[(3S)-5-[(6-chloro-1,2,3,4-tetrahydroisoquinolin-2-yl)sulfonyl]-9-[(cyclohex-1-en-1-yl)methyl]-3-methyl-1,5,9-triazacyclododecan-1-yl]sulfonyl}-N,N-dimethylaniline] | 26.1 | 5.91 | 6.20 | 7.67 | 56.3 | < 4.60 | 7.31 | 39.2 | 9.36 | – | – | – | – | – | – | – | – | –
7 | Cc1ccc(N2CCN(S(=O)(=O)N3CCCN(CC4CCCCC4)CCCN(S(=O)(=O)c4ccc(N(C)C)cc4)C[C@H](C)C3)CC2)cc1 [A99, 4-{[(3S)-9-(cyclohexylmethyl)-3-methyl-5-{[4-(4-methylphenyl)piperazin-1-yl]sulfonyl}-1,5,9-triazacyclododecan-1-yl]sulfonyl}-N,N-dimethylaniline] | – | – | – | – | – | – | – | 37 | 41.9 | 60.8 | < 4.60 | 5.45 | 6.94 | 50.8 | < 4.60 | 6.46 | – | –
8 | C[C@H]1CN(S(=O)(=O)c2ccc(N(C)C)cc2)CCCN(CC2CCCCC2)CCCN(S(=O)(=O)N2CCN(c3ccccc3C#N)CC2)C1 [A118, 2-(4-{[(3S)-9-(cyclohexylmethyl)-5-[4-(dimethylamino)benzenesulfonyl]-3-methyl-1,5,9-triazacyclododecan-1-yl]sulfonyl}piperazin-1-yl)benzonitrile] | 22.1 | 5.27 | 5.68 | 7.17 | 18.3 | < 4.60 | 6.76 | 14.7 | 14.2 | – | – | – | – | – | – | – | – | –
9 | CO/N=C1/CN(S(=O)(=O)c2ccc(N(C)C)cc2)CCCN(CC2CCCCC2)CCCN(S(=O)(=O)N2CCC(c3ccccc3)CC2)C1 [A88, (3Z)-9-(cyclohexylmethyl)-1-[4-(dimethylamino)benzenesulfonyl]-N-methoxy-5-[(4-phenylpiperidin-1-yl)sulfonyl]-1,5,9-triazacyclododecan-3-imine] | – | – | – | – | – | – | – | – | – | 15.9 | < 4.60 | < 4.60 | 5.36 | 15.2 | < 4.60 | < 4.60 | 1.33 | 11.7
10 | C[C@H]1CN(S(=O)(=O)c2ccc(N(C)C)cc2)CCCN(CC2CCCCC2)CCCN(S(=O)(=O)N2CCC(Oc3ccccc3)CC2)C1 [A92, 4-{[(3S)-9-(cyclohexylmethyl)-3-methyl-5-[(4-phenoxypiperidin-1-yl)sulfonyl]-1,5,9-triazacyclododecan-1-yl]sulfonyl}-N,N-dimethylaniline] | – | – | – | – | – | – | – | – | – | 40.8 | < 4.60 | < 4.60 | 6.52 | 51.8 | < 4.60 | 6.29 | 40.4 | 44.3

— patent US11578055B2, “Triazacyclododecansulfonamide (“TCD”)-based protein secretion inhibitors” (KEZAR LIFE SCIENCES, priority 2018, dated 2023)
